The molecules below were run on bioluminescent sensor strain Escherichia coli MT102 (pSB403) (assay: Biosensor assay: quorum sensing inhibition, bioluminescence of the sensor strain). Conditions: 3oxo-C6-HSL 100 nM; bioluminescence after 4 hours at 30° C.; read-out: IC50.
Format: cell-based
Method: Quorum sensing inhibition of the compounds was investigated with the aid of the bioluminescent sensor strain Escherichia coli MT102 (pSB403) (Winson et al., FEMS Microbiol. Lett. 163:185-92, 1998). Plasmid pSB403 contains the Photobacterium fischeri luxR gene together with the […] promoter region as a transcriptional fusion to the bioluminescence genes luxCDABE of Photorhabdus luminescence.
Inhibitory studies were conducted in a microtitre dish assay as follows: the E. coli sensor strain grown over night in LB medium (Sambrook et al., Molecular Cloning: A Laboratory Manual. 2nd Edn. Cold Spring Harbor Laboratory, New York, 1989) was diluted 1:4 and grown for another 1 hour at 30° C. After addition of 3oxo-C6-HSL (final concentration 100 nM) 100 μl of an exponential culture suspension were filled in the wells of a FluoroNunc Polysorp microtitre dish. The test compounds were added to the culture in different concentrations and bioluminescence was measured after 4 hours of incubation at 30° C. with a Lamda Fluoro 320 Plus reader (Bio-Tek Instruments). Inhibitor-mediated reduction of light emission was correlated with the value obtained without addition of the test compounds. IC50 values (concentration of inhibitor required for 50% inhibition of the signal compared to the signal without inhibitor) were determined by using a fitting function after drawing a graph of the activities of eight different inhibitor concentrations.
With `CCCCCCCCCC(=O)CC(=O)Nc1sccc1C(=O)OC` [Compound 122, Z(3-Oxo-dodecanoylamino)-thiophene-3-carboxylic acid methyl ester] the IC50 was over 100 µM.

Same assay, conditions: Escherichia coli, 4 h, 3oxo-C6-HSL 100 nM; bioluminescence after 4 hours at 30° C.
`CCCCCCCC(=O)NNC(=O)c1cccnc1Cl` [Compound 94, 2-Chloro-nicotinic acid N′-octanoyl-hydrazide] gave an IC50 of 1 to 50 µM.
Work on `CCOC(=O)CC(=O)NNC(=O)c1sccc1Br` [Compound 95] yielded an IC50 of 1 to 50 µM.
With `CCOC(=O)CC(=O)NNC(=O)c1cc2ccccc2s1` [Compound 96, 3-[N′-(Benzo[b]thiophene-2-carbonyl)-hydrazino]-3-oxo-propionic acid ethyl ester] the IC50 was 50 to 100 µM.
`O=C(NNS(=O)(=O)c1ccc(Cl)s1)c1cccs1` [Compound 97, N′-(5-Chloro-thiophen-2-sulfonyl)-thiophene-2-carboxylic acid hydrazide] showed an IC50 of 1 to 50 µM.
`CCCC(=O)NNS(=O)(=O)c1ccc(Cl)s1` [Compound 98, Butyric acid N′-(5-chloro-thiophen-2-sulfonyl)-hydrazide] was tested, and the IC50 was 50 to 100 µM.
Work on `CCCCCCC(=O)NNS(=O)(=O)c1ccc(Cl)s1` [Compound 99, N′-(5-Chloro-thiophen-2-sulfonyl)-heptanoic acid hydrazide] yielded an IC50 of over 100 µM.
In the case of `CCCCNC(=S)NNC(=O)c1cccs1` [Compound 100, 4-Butyl-1-(thiophene-2-carbonyl)-thiosemicarbazide], the IC50 is reported as 1 to 50 µM.
`CCCCCNC(=O)NNC(=O)c1cc(Br)c(Br)s1` [Compound 101, 1-(4,5-Dibromo-thiophene-2-carbonyl)-4-pentyl-semicarbazide] showed an IC50 of over 100 µM.
In the case of `O=C(NNC(=O)c1ccc(Br)s1)Nc1ccc(F)cc1C(F)(F)F` [Compound 102, 1-(5-Bromo-thiophene-2-carbonyl)-4-(4-fluoro-2-trifluoromethyl-phenyl)-semicarbazide], the IC50 is reported as over 100 µM.
For `O=C(NNC(=O)c1cc(Br)c(Br)s1)Nc1ccc(Cl)c(C(F)(F)F)c1` [Compound 103, 4-(4-Chloro-3-trifluoromethyl-phenyl)-1-(4,5-dibromo-thiophene-2-carbonyl)-semicarbazide], the IC50 was 50 to 100 µM.
Molecule `O=C(NNC(=O)c1cc(Br)c(Br)s1)Nc1cccc(C(F)(F)F)c1` [Compound 104, 1-(4,5-Dibromo-thiophene-2-carbonyl)-4-(3-trifluoromethyl-phenyl)-semi-carbazide] has an IC50 of 1 to 50 µM.
Molecule `CSc1ccc(NC(=O)NNC(=O)c2scc(C)c2Cl)cc1` [Compound 105, 1-(3-Chloro-4-methyl-thiophene-2-carbonyl)-4-(4-methylsulfanyl-phenyl)-semicarbazide] has an IC50 of 1 to 50 µM.
`Cc1csc(C(=O)NNC(=O)Nc2ccc(Br)cc2)c1Cl` [Compound 106, 4-(4-Bromo-phenyl)-1-(3-chloro-4-methyl-thiophene-2-carbonyl)-semicarbazide] was tested, and the IC50 was 1 to 50 µM.
`O=C(NNC(=O)c1ccc(Br)s1)Nc1ccccc1CCl` [Compound 107, 1-(5-Bromo-thiophene-2-carbonyl)-4-(2-chloromethyl-phenyl)-semicarbazide] was tested, and the IC50 was 1 to 50 µM.
`O=C(NNC(=O)c1ccc(Cl)s1)Nc1ccccc1CCl` [Compound 108, 4(2-Chloro-methyl-phenyl)-1-(5-chloro-thiophene-2-carbonyl)-semicarbazide] gave an IC50 of 1 to 50 µM.
`COc1ccc(NC(=O)NNC(=O)c2ccc(Br)s2)cc1` [Compound 109, 1-(5-Bromo-thiophene-2-carbonyl)-4-(4-methoxy-phenyl)-semicarbazide] showed an IC50 of over 100 µM.
For `O=C(NNC(=O)c1ccc(Br)s1)Nc1c(F)cccc1F` [Compound 110, 1-(5-Bromo-thiophene-2-carbonyl)-4-(2,6-difluoro-phenyl)-semicarbazide], the IC50 was over 100 µM.
In the case of `O=C(NNC(=O)c1sc2ccccc2c1Cl)Nc1cc(Cl)nc(Cl)c1` [Compound 111, 1-(3-Chloro-benzo[b]thiophen-2-carbonyl)-4-(2,6-dichloro-pyridinyl)-semicarbazide], the IC50 is reported as over 100 µM.
In the case of `Cc1ccccc1NC(=O)NNC(=O)c1sc2ccccc2c1Cl` [Compound 112, 1-(3-Chloro-benzo[b]thiophene-2-carbonyl)-4-o-tolyl-semi-carbazide], the IC50 is reported as over 100 µM.
Work on `CCCCCCC(=O)CC(=O)Nc1ccn[nH]1` [Compound 113, 3-Oxo-nonanoic acid (2H-pyrazol-3-yl)-amide] yielded an IC50 of over 100 µM.
Molecule `CCCCCCC(=O)CC(=O)Nc1ccnn1C` [Compound 114, 3-Oxo-nonanoic acid (2methyl-2H-pyrazol-3-yl)-amide] has an IC50 of over 100 µM.
`CCCCCCCCCC(=O)CC(=O)Nc1ccnn1C` [Compound 115, 3-Oxo-dodecanoic acid (2-methyl-2H-pyrazol-3-yl)-amide] was tested, and the IC50 was over 100 µM.
With `CCCCCCC(=O)CC(=O)Nc1ccnn1CC` [Compound 116, 3-Oxo-nonanoic acid (2-ethyl-2H-pyrazol-3-yl)-amide] the IC50 was over 100 µM.
`CCCCCCCCCC(=O)CC(=O)Nc1ccnn1CC` [Compound 117, 3-Oxo-dodecanoic acid (2-ethyl-2H-pyrazol-3-yl)-amide] gave an IC50 of over 100 µM.
For `CCCCCCC(=O)CC(=O)Nc1cc(C)nn1C` [Compound 118, 3-Oxo-nonanoic acid (2,5-dimethyl-2H-pyrazol-3-yl)-amide], the IC50 was over 100 µM.
`CCCCCCCCCC(=O)CC(=O)Nc1cc(C)nn1C` [Compound 119, 3-Oxo-dodecanoic acid (2,5-dimethyl-2H-pyrazol-3-yl)-amide] was tested, and the IC50 was over 100 µM.
In the case of `CCCCCCC(=O)CC(=O)Nn1cccn1` [Compound 120, 3-Oxo-nonanoic acid pyrazol-1-ylamide], the IC50 is reported as over 100 µM.
`CCCCCCC(=O)CC(=O)Nc1sccc1C(=O)OC` [Compound 121, 2-(3-Oxo-nonanoylamino)-thiophene-3-carboxylic acid methyl ester] gave an IC50 of over 100 µM.
`CCCCCCC(=O)CC(=O)Nc1scc(C)c1C(=O)OCC` [Compound 123, 4-Methyl-2-(3-oxo-nonanoylamino)-thiophene-3-carboxylic acid ethyl ester] showed an IC50 of over 100 µM.
In the case of `CCCCCCCCCC(=O)CC(=O)Nc1scc(C)c1C(=O)OCC` [Compound 124, 4-Methyl-2-(3-oxo-dodecanoylamino)-thiophene-3-carboxylic acid ethyl ester], the IC50 is reported as over 100 µM.
`CCCCCCC(=O)CC(=O)Nc1cc(C)ns1` [Compound 125, 3-Oxo-nonanoic acid (3-methyl-isothiazol-5-yl)-amide] was tested, and the IC50 was over 100 µM.
In the case of `CCCCCCCCCC(=O)CC(=O)Nc1cc(C)ns1` [Compound 126, 3-Oxo-dodecanoic acid (3-methyl-isothiazol-5-yl)-amide], the IC50 is reported as over 100 µM.
`CCCCCCC(=O)CC(=O)Nc1nccs1` [Compound 127, 3-Oxo-nonanoic acid thiazol-2-ylamide] gave an IC50 of over 100 µM.
Molecule `CCCCCCCCCC(=O)CC(=O)Nc1nccs1` [Compound 128, 3-Oxo-dodecanoic acid thiazol-2-ylamide] has an IC50 of over 100 µM.
For `CCCCCCC(=O)CC(=O)Nc1nc(SC)sc1C(C)=O` [Compound 129, 3-Oxo-nonanoic acid (5-acetyl-2-methylsulfanyl-thiazol-4-yl)-amide], the IC50 was over 100 µM.
Molecule `CCCCCCC(=O)CC(=O)Nc1ccon1` [Compound 130, 3-Oxo-nonanoic acid isoxazol-3-ylamide] has an IC50 of over 100 µM.
Molecule `CCCCCCCCCC(=O)CC(=O)Nc1ccon1` [Compound 131, 3-Oxo-dodecanoic acid isoxazol-3-ylamide] has an IC50 of over 100 µM.
With `CCCCCCC(=O)CC(=O)Nc1cc(C)no1` [Compound 132, 3-Oxo-nonanoic acid (3-methyl-isoxazol-5-yl)-amide] the IC50 was over 100 µM.
For `CCCCCCCCCC(=O)CC(=O)Nc1cc(C)no1` [Compound 133, 3-Oxo-dodecanoic acid (3-methyl-isoxazol-5-yl)-amide], the IC50 was over 100 µM.
`CCCCCCC(=O)CC(=O)Nc1nc(C)co1` [Compound 134, 3-Oxo-nonanoic acid (4-methyl-oxazol-2-yl)-amide] showed an IC50 of over 100 µM.
`CCCCCCC(=O)CC(=O)Nc1oc(C)nc1C#N` [Compound 135, 3-Oxo-nonanoic acid (4cyano-2-methyl-oxazol-5-yl)-amide] showed an IC50 of 50 to 100 µM.
`CCCCCCC(=O)CC(=O)Nc1oc(C)c(C)c1C#N` [Compound 136, 3-Oxo-nonanoic acid (3-cyano-4,5-dimethyl-furan-2-yl)-amide] showed an IC50 of over 100 µM.
With `CCCCCCCCCC(=O)CC(=O)Nc1oc(C)c(C)c1C#N` [Compound 137, 3-Oxododecanoic acid (3-cyano-4,5-dimethyl-furan-2-yl)-amide] the IC50 was over 100 µM.
`CCCCCCC(=O)CC(=O)Nc1ccc(C(=O)OC)o1` [Compound 138, 5-(3-Oxo-nonanoylamino)-furan-2-carboxylic acid methyl ester] gave an IC50 of over 100 µM.
